The record followed here is US10975080B2, “Compounds and compositions for inhibiting the activity of SHP2” (NOVARTIS AG, priority 2015, dated 2021).

Each structure is given as a SMILES string.

Chain of SHP2 (Q06124 whole entry): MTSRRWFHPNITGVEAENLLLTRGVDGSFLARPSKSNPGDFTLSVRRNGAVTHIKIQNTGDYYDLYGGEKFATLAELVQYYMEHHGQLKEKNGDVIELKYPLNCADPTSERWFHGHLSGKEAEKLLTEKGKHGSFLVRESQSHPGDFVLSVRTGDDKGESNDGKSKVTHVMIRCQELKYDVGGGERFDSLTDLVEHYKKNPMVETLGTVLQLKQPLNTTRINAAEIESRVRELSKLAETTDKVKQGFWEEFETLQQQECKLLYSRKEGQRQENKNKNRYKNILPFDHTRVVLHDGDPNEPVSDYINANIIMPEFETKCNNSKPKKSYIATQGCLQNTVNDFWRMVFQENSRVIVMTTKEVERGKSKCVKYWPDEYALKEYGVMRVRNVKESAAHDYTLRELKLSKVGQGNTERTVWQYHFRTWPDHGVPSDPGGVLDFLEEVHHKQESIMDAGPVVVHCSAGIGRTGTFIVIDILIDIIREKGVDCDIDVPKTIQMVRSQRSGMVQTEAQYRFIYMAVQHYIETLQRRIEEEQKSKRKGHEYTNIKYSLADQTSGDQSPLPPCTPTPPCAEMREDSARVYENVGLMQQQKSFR

The first assay has as its target SHP2 (Homo sapiens (Human), UniProt Q06124). Put plainly: SHP2 Allosteric Inhibition Assay. Format: biochemical. Conditions: 0.5 nM SHP2 with 0.5 μM peptide IRS1_pY1172(dPEG8)pY1222; surrogate substrate DiFMUP; 25° C.; read-out: IC50. The source says:
SHP2 Allosteric Inhibition Assay
SHP2 is allosterically activated through binding of bis-tyrosyl-phosphorylated peptides to its Src Homology 2 (SH2) domains. The latter activation step leads to the release of the auto-inhibitory interface of SHP2, which in turn renders the SHP2 protein tyrosine phosphatase (PTP) active and available for substrate recognition and reaction catalysis. The catalytic activity of SHP2 was monitored using the surrogate substrate DiFMUP in a prompt fluorescence assay format.
After 30-60 minutes incubation at 25° C., the surrogate substrate DiFMUP (Invitrogen, cat #D6567) was added to the reaction and incubated at 25° C. for 30 minutes. […] The inhibitor dose response curves were analyzed using normalized IC50 regression curve fitting with control based normalization.
By IC50 is commonly meant the concentration at which inhibition is half-maximal. In the case of `COc1nccc(-c2c[nH]c3nc(N4CCC5(CC4)CO[C@@H](C)[C@H]5N)n(C)c(=O)c23)c1Cl` [Example 9, 2-((3S,4S)-4-amino-3-methyl-2-oxa-8-azaspiro[4.5]decan-8-yl)-5-(3-chloro-2-methoxypyridin-4-yl)-3-methyl-3,7-dihydro-4H-pyrrolo[2,3-d]pyrimidin-4-one], the IC50 came to 0.026 µM.

`Cn1c(N2CCC3(CCC[C@H]3N)CC2)nc2n[nH]c(-c3cccc(Cl)c3Cl)c2c1=O` [Example 2, (R)-6-(1-amino-8-azaspiro[4.5]decan-8-yl)-3-(2,3-dichlorophenyl)-5-methyl-2H-pyrazolo[3,4-d]pyrimidin-4(5H)-one]: the IC50 is 0.0255 µM.

Staying with this assay, now noted: 0.5 nM SHP2 with 0.5 μM peptide IRS1_pY1172(dPEG8)pY1222; surrogate substrate DiFMUP; 25° C.; read-out: SHP2 IC50.
Consider `C[C@@H]1OCC2(CCN(c3nc4[nH]nc(-c5ccnc(N6CCOCC6)c5Cl)c4c(=O)n3C)CC2)[C@@H]1N` [Example 30, 6-((3S,4S)-4-amino-3-methyl-2-oxa-8-azaspiro[4.5]decan-8-yl)-3-(3-chloro-2-morpholinopyridin-4-yl)-5-methyl-1,5-dihydro-4H-pyrazolo[3,4-d]pyrimidin-4-one], for which the IC50 amounted to 0.103 µM.

On to `CNc1cc(-c2n[nH]c3nc(N4CCC5(CC4)CO[C@@H](C)[C@H]5N)n(C)c(=O)c23)ccn1` [Example 46, 6-((3S,4S)-4-amino-3-methyl-2-oxa-8-azaspiro[4.5]decan-8-yl)-5-methyl-3-(2-(methylamino)pyridin-4-yl)-1,5-dihydro-4H-pyrazolo[3,4-d]pyrimidin-4-one], for which the IC50 worked out at 0.05 µM.

In the case of `Cn1c(N2CCC(C)(CN)CC2)nc2[nH]nc(Sc3cccc(Cl)c3Cl)c2c1=O` [Example 83, 6-(4-(aminomethyl)-4-methylpiperidin-1-yl)-3-((2,3-dichlorophenyl)thio)-5-methyl-1,5-dihydro-4H-pyrazolo[3,4-d]pyrimidin-4-one], the IC50 was 0.008 µM.

Take `C[C@@H]1OCC2(CCN(c3nc4[nH]nc(-c5c(F)ccc(Cl)c5Cl)c4c(=O)n3C)CC2)[C@@H]1N` [Example 27, 6-((3S,4S)-4-amino-3-methyl-2-oxa-8-azaspiro[4.5]decan-8-yl)-3-(2,3-dichloro-6-fluorophenyl)-5-methyl-1,5-dihydro-4H-pyrazolo[3,4-d]pyrimidin-4-one]: the IC50 was determined as 0.45 µM.

With `COc1ccc(-c2n[nH]c3nc(N4CCC5(CC4)CO[C@@H](C)[C@H]5N)n(C)c(=O)c23)cc1` [Example 42, 6-((3S,4S)-4-amino-3-methyl-2-oxa-8-azaspiro[4.5]decan-8-yl)-3-(4-methoxyphenyl)-5-methyl-1,5-dihydro-4H-pyrazolo[3,4-d]pyrimidin-4-one], the half-maximal inhibitory concentration (IC50) amounted to 0.02 µM.

Consider `Cn1c(N2CCC(C)(CN)CC2)nc2[nH]nc(-c3ccncc3Cl)c2c1=O` [Example 28, 6-(4-(aminomethyl)-4-methylpiperidin-1-yl)-3-(3-chloropyridin-4-yl)-5-methyl-1,5-dihydro-4H-pyrazolo[3,4-d]pyrimidin-4-one], for which the 50% inhibitory concentration (IC50) stood at 0.312 µM.

For `Cn1c(N2CCC(C)(CN)CC2)nc2[nH]nc(-c3cccc(C(F)(F)F)c3Cl)c2c1=O` [Example 26, 6-(4-(aminomethyl)-4-methylpiperidin-1-yl)-3-(2-chloro-3-(trifluoromethyl)phenyl)-5-methyl-1,5-dihydro-4H-pyrazolo[3,4-d]pyrimidin-4-one], the IC50 was 0.127 µM.

`C[C@@H]1OCC2(CCN(c3nc4[nH]nc(-c5ccccc5)c4c(=O)n3C)CC2)[C@@H]1N` [Example 41, 6-((3S,4S)-4-amino-3-methyl-2-oxa-8-azaspiro[4.5]decan-8-yl)-5-methyl-3-phenyl-1,5-dihydro-4H-pyrazolo[3,4-d]pyrimidin-4-one]: the half-maximal inhibitory concentration (IC50) came to 0.033 µM.

Turning to `Cc1nc(N)ccc1-c1n[nH]c2nc(N3CCC4(CC3)CC(F)(F)C[C@H]4N)n(C)c(=O)c12` [Example 49, (R)-3-(6-amino-2-methylpyridin-3-yl)-6-(1-amino-3,3-difluoro-8-azaspiro[4.5]decan-8-yl)-5-methyl-1,5-dihydro-4H-pyrazolo[3,4-d]pyrimidin-4-one], the 50% inhibitory concentration (IC50) stood at 0.009 µM.

As for `CNc1nccc(-c2n[nH]c3nc(N4CCC5(CC4)CO[C@@H](C)[C@H]5N)n(C)c(=O)c23)c1Cl` [Example 32, 6-((3S,4S)-4-amino-3-methyl-2-oxa-8-azaspiro[4.5]decan-8-yl)-3-(3-chloro-2-(methylamino)pyridin-4-yl)-5-methyl-1,5-dihydro-4H-pyrazolo[3,4-d]pyrimidin-4-one], the IC50 was 0.054 µM.

Consider `C[C@@H]1OCC2(CCN(c3nc4[nH]nc(-c5ccnc(N)c5)c4c(=O)n3C)CC2)[C@@H]1N` [Example 45, 6-((3S,4S)-4-amino-3-methyl-2-oxa-8-azaspiro[4.5]decan-8-yl)-3-(2-aminopyridin-4-yl)-5-methyl-1,5-dihydro-4H-pyrazolo[3,4-d]pyrimidin-4-one], for which the IC50 is 0.037 µM.

`C[C@@H]1OCC2(CCN(c3nc4[nH]nc(-c5cccc(F)c5)c4c(=O)n3C)CC2)[C@@H]1N` [Example 61, 6-((3S,4S)-4-amino-3-methyl-2-oxa-8-azaspiro[4.5]decan-8-yl)-3-(3-fluorophenyl)-5-methyl-1,5-dihydro-4H-pyrazolo[3,4-d]pyrimidin-4-one]: the IC50 came out at 0.014 µM.

For `Cc1nc(N)ccc1-c1n[nH]c2nc(N3CCC4(CC3)C[C@@H](C(F)(F)F)C[C@H]4N)n(C)c(=O)c12` [Example 53, 3-(6-amino-2-methylpyridin-3-yl)-6-((1R,3R)-1-amino-3-(trifluoromethyl)-8-azaspiro[4.5]decan-8-yl)-5-methyl-1,5-dihydro-4H-pyrazolo[3,4-d]pyrimidin-4-one], the IC50 was 0.036 µM.

On to `CCNc1nccc(-c2n[nH]c3nc(N4CCC5(CC4)CO[C@@H](C)[C@H]5N)n(C)c(=O)c23)c1Cl` [Example 72, 6-((3S,4S)-4-amino-3-methyl-2-oxa-8-azaspiro[4.5]decan-8-yl)-3-(3-chloro-2-(ethylamino)pyridin-4-yl)-5-methyl-1,5-dihydro-4H-pyrazolo[3,4-d]pyrimidin-4-one], for which the half-maximal inhibitory concentration (IC50) is 0.047 µM.

With `COc1nccc(-c2n[nH]c3nc(N4CCC5(CC4)CO[C@@H](C)[C@H]5N)n(C)c(=O)c23)c1Cl` [Example 18, 6-((3S,4S)-4-amino-3-methyl-2-oxa-8-azaspiro[4.5]decan-8-yl)-3-(3-chloro-2-methoxypyridin-4-yl)-5-methyl-1,5-dihydro-4H-pyrazolo[3,4-d]pyrimidin-4-one], the IC50 is 0.043 µM.

Take `Cc1nc(N)ccc1-c1n[nH]c2nc(N3CCC4(CC3)CO[C@@H](C)[C@H]4N)n(C)c(=O)c12` [Example 47, 3-(6-amino-2-methylpyridin-3-yl)-6-((3S,4S)-4-amino-3-methyl-2-oxa-8-azaspiro[4.5]decan-8-yl)-5-methyl-1,5-dihydro-4H-pyrazolo[3,4-d]pyrimidin-4-one]: the concentration for half-maximal inhibition (IC50) came out at 0.037 µM.

`C[C@@H]1OCC2(CCN(c3nc4[nH]nc(-c5ccnc(N6CCCC6)c5Cl)c4c(=O)n3C)CC2)[C@@H]1N` [Example 31, 6-((3S,4S)-4-amino-3-methyl-2-oxa-8-azaspiro[4.5]decan-8-yl)-3-(3-chloro-2-(pyrrolidin-1-yl)pyridin-4-yl)-5-methyl-1,5-dihydro-4H-pyrazolo[3,4-d]pyrimidin-4-one]: the IC50 was determined as 0.012 µM.
